Test results reported in publication PMC9889419 (Pharmacological Reports, 2022).
“And” between values parts separate entries of the source, which are not always exact repeats. Equal values may be shown once. Read-outs that look alike come from different tables or passages of the source.

Key:
mice [1] = assay: Rotarod test (neurotoxicity); assay type: in vivo; details: mice, ip;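 further: in vivo neurotoxicity screen run within the NIH Epilepsy Therapy Screening Program (ETSP, formerly Anticonvulsant Screening Program)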
Procedure: (§3) The assays were carried out within the Epilepsy Therapy Screening Program (ETSP, previously known as the Anticonvulsant Screening Program, ASP), Epilepsy Branch, National Institute of Neurological and Communicative Disorders and Stroke, National Institutes of Health in Rockville, MD, USA [23].
(§4) The obtained compounds were screened for antiseizure activity and neurotoxicity in vivo within the Epilepsy Therapy Screening Program (ETSP, previously known as the Anticonvulsant Screening Program, ASP), Epilepsy Branch, National Institute of Neurological and Communicative Disorders and Stroke, National Institutes of Health in Rockville, MD, USA [23].

mice [2] = details: mice, ip, […]
Procedure: as §3, §4

rats [3] = assay type: in vivo; details: ip
mice [4] = assay: Subcutaneous pentylenetetrazole seizure test (ScPTZ, SCMET); assay type: in vivo; details: mice, ip, […]
Procedure: as §3

[5] = system: organotypic hippocampal slice cultures; assay: Neuroprotection primary screen, excitotoxin NMDA; assay type: cell-based; details: NMDA 10 µM; 10 and 100 µM compound
Description: Gompound 1 : ADD Number: ItSot+ Batct: lE- Date Started:
Compound 2 : ADD Number: Froso Batct: le Date Completed i l|26-M ar -20 1 O […]
Excitotoxin: lNmoa lnsult Duration: la Uouo Solvent:
Primary Screen Results: ffi […]
Al lruuoa rolrr,| A2lr'rrr,tOa r Olrrr,t * --.- A3 lr'rnroa r oprvr + lsaoot+ t oplrl+aesogo iopM
BZ lr.rrr,ron ropr,t , -_-_-- 83 lluoa topt',r * jffi 1 4 t oopM.€sroso 1 oolrM la+eota tooptu*aasoeo roffi […]
The 'Primary screen Experiment" is a qualitative assessment of the ability of a compound to prevent excrtotoxic cell death. organotypic hippocampal slice cultures are treated *ltn r.i-."iivr-o-"spartate (NMDA) or kainic acad (KA) to induce neuronal cell death' Propidium iodide (Pl), a membrane-imper.eant cornpouna, is included in all wells of the culture plate.
Dying cells have compromised *]lT^"Toj*::, ttr. er rnJy oin "" into the cell, intercatate with DNA and fluoresce. Thus, the intensity of the Pl fluorescence is proportional to the amount of cell death in lhe individual itices. ttippocampat slice cullures are treated with the excitotoxin alone, or *i er. inoi"ui"o above, with the excitotoxin and either one -qf]bar-a Investigalional compounds at the concentrations indicated. lf neuroprotectron occurs as a consequence of the added […]
(§1) been treated with the excitotoxin alone.
(§2) (1 picture or pasted object on this page, not shown here)

mice [6] = assay: 6 Hz test; assay type: in vivo; details: 32 mA, mice, ip
Procedure: The 6 Hz model test was carried out according to the protocol originally described by Brown et al. [54] and more recently by Barton et al. [55] and Kamiński et al. [47] and is a model of pharmacoresistant epilepsy [56].

[7] = system: organotypic hippocampal slice cultures; assay: Neuroprotection primary screen, excitotoxin kainic acid; assay type: cell-based; details: kainic acid 20 µM; 10 and 100 µM compound
Procedure: Compound 2 : ADD t{umber, b890s0 Batch: lB- Date Compteted. Ect\,t""201 0 […]
Excilotoxin: llGinic ncia Insult Duration: l+ Hours Solvent: […]
Ai lxn zopr.,r aZ lxa zopr,r Ae lre zoprta
Bz lr<n zopn er ]ra zopr',t l:+aot a r ooprt/|*aa9o8o l oopM lgaeota t oot,tr,t*gB9o8o t oopM […]
The "Primary screen Experiment" is a qualitative assessment of the ability of a compound to prevent excitotoxic cell dearh. organotypic hippocampal slice clltures are treated with N-methyl-D-aipartate lNuoa; o; kainic acid (KA) to induce neuronal cell death. Propidium iodide (Pl), a membrane-impermeant compound, is included in all welts of the culture plate.
Dying cells have compromised cell membranes, thus Pl may diffuse into the cell, intercalate with DNA and ftuoresce. Thus, the intensity of the Pl fluorescence is proportional to the amount of cell death in the individual slices. Hippocampal slice cultures are treated with the excitotoxin alone, or where indicated above, with the excitotoxin and either one eltu/o investigational compounds at the concentrations indicated. lf neuroprotection occurs as a consequence of the added […]
as §1, §2

mice [8] = assay: iv pentylenetetrazole (PTZ) seizure threshold test; details: compound ip
Procedure: (§5) They were also evaluated in the iv pentylenetetrazole (PTZ) test.
(§6) Data are expressed as the mean PTZ dose ± SEM for n = 10 that induced clonus or twitch in mice exposed to a particular dose of the test compound

rats [9] = assay: Acute toxicity (ETSP screening); assay type: in vivo; details: ip, 0.5 h
rats [10] = assay type: in vivo; details: ip; remark: listed apart in the source
mice [11] = assay: Formalin test (ETSP, area under the curve); assay type: in vivo; details: 20.0 mg/kg, ip
rats [12] = details: ip
Procedure: as §3

rats [13] = assay: Rotarod / TOX (neurotoxicity); details: rats, ip
Procedure: as §3, §4

rats [14] = assay: Maximal electroshock seizure (MES) test; assay type: in vivo
mice [15] = details: at 40 and 80 mg/kg, ip; cited from earlier work
Frings mice = details: cited from earlier work
mice [16] = details: ip; cited from earlier work
mice [17] = details: mouse, in vivo
Procedure: as §5, §6

mice [18] = assay: Corneal kindling; assay type: in vivo; details: ip, […]
slices = assay: Propidium iodide uptake in slices; assay type: cell-based; details: 100.00 uM
Description: Anticonvulsant Screeninq Proqram
Solvent Code: DMSO Solvent Prep:
Add Compound Conc,(uM) # of slices % ofTotal Propidium lodide Uptake(mean +,/- S.E.M)

rats [19] = assay: SCMET (subcutaneous Metrazol) test; assay type: in vivo; details: rats, ip, 0.50 h

## CC[C@H](CO)NCCOc1c(C)cccc1Cl [Compound 5, R-(-)-2-((2-(2-chloro-6-methylphenoxy)ethyl)amino)butan-1-ol]
Mice [1]
  Rotarod TD50: 59.80 (43.80–74.20) mg/kg
Mice [2]
  MES ED50: 18.20 (16.60–20.00) mg/kg
Rats [3]
  Pilocarpine-induced status epilepticus prevention: active at: 50 mg/kg
Rats [3]; 25 mg/kg, 0 h post first Stage III seizure
  Prot./Tested: 2/8
Rats [3]; at 100 mg/kg, […]
  Pilocarpine test: rats died: 2/2
Mice [4]
  SCMET ED50: > 70 mg/kg
[5]
  Test Result (neuroprotection): No Neuroprotection
Mice [6]
  6 Hz ED50: 33.1 (29–37.8) mg/kg
  6 Hz TPE: 0.25 h
[7]
  Test Result (neuroprotection): No Neuroprotection
Mice [8]
  influence on seizure threshold: effect was not shown
Rats [9]
  Acute toxicity: minimal motor impairment at: 50 mg/kg
Rats [10]
  Hippocampal kindling TPE: 0.75 h
Rats [10]; at 30 mg/kg
  Hippocampal kindling seizure score by Racine (0–5), Rat1: 4
  Hippocampal kindling seizure score by Racine (0–5), Rat2: 0
Mice [11]
  Area under the curve (I phase): 155.1 ± 44.2
  Area under the curve (II phase): 496.7 ± 164.7
  Area under the curve, % of control (I phase): 78.7; t14 = 1.3050%
  Area under the curve, % of control (II phase): 105.6; t14 = 0.3579%
Mice [11]; listed as 354009
  Area under the curve (II phase): 496.7
  Area under the curve, % of control (I phase): 78.68%
  Area under the curve, % of control (II phase): 105.6%
Rats [12]; 30 mg/kg
  LTG-resistant amygdala seizures: rats with toxicity: 3/4
  LTG-resistant amygdala seizures: seizure score by Racine (0–5): 3.5
Rats [12]; 50 mg/kg
  LTG-resistant amygdala seizures: rats with toxicity: 5/5
  LTG-resistant amygdala seizures: seizure score by Racine (0–5): 2.2
Rats [13]
  Rotarod TPE: 0.25 h
  Rotarod TD50: > 30 mg/kg
Rats [14]; ip
  MES PI: > 9.12
  MES TPE: 0.25 h
Rats [14]; ip, […]
  MES ED50: 4.65 (2.94–6.88) mg/kg
Rats [14]; po
  MES TPE: 0.5 h

## NC(=O)N1c2ccccc2C=Cc2ccccc21 [Carbamazepine]
Mice [15]
  6 Hz: Max. protection: 75%
Frings mice
  Frings mice sound-induced seizures ED50: 11.2 (7.73–16.2) mg/kg
Mice [16]
  MES ED50: 7.81 (6.32–8.45) mg/kg

## CC[C@@H](CO)NCCOc1c(C)cccc1Cl [Compound 6, S-( +)-2-((2-(2-chloro-6-methylphenoxy)ethyl)amino)butan-1-ol]
Mice [17]
  influence on seizure threshold: effect was not shown
Mice [1]
  Rotarod TD50: 47.7 (32.6–68.3) mg/kg
Mice [1]; 6 Hz report of Aug-2010
  TOX TD50: 35.8 mg/kg
Rats [3]
  Pilocarpine-induced status epilepticus prevention: active at: 45 mg/kg
Rats [3]; at 90 mg/kg
  Pilocarpine test: deaths: 8 deaths in 9 rats
[5]
  Test Result (neuroprotection): No neuroprotection observed
Mice [6]
  6 Hz ED50: 20.4 (14.9–25.4) mg/kg
Mice [18]
  Corneal kindling ED50: 10.50 (3.67–22.09) mg/kg
slices
  % of Total Propidium Iodide Uptake (mean +/- S.E.M): 33.1%
Rats [10]; […]
  Hippocampal kindling ED50: 15.81 mg/kg
Mice [11]
  Area under the curve (I phase): 135.3 ± 36.4
  Area under the curve (II phase): 387.0 ± 110.1
  Area under the curve, % of control (I phase): 69.3% and 69.3; t14 = 1.5800%
Mice [11]; listed as 354010
  Area under the curve (I phase): 135.2
  Area under the curve (II phase): 387.0
  Area under the curve, % of control (II phase): 57.2%
Rats [13]
  Rotarod TD50: 44.29 (40.72–47.52) mg/kg
Rats [19]
  SCMET ED50: > 60.0 mg/kg
Rats [14]; ip
  MES PI: 4.19
  MES TPE: 0.5 h
Rats [14]; ip, 0.5 h (TPE)
  MES ED50: 10.58 (6.69–15.38) mg/kg
